Experimental data as given in US11898155B2, “Method for introducing molecule and composition containing inhibitor” (Pearl Kogyo Co., Ltd., priority 2017, dated 2024).

Assays:
L-929 cells [1] = experiment: Gene transfer efficiency (GFP-expressing cells/viable cell number, Cytell) after plasma introduction with inhibitor treatment; type: cell-based, mouse; settings: for gene introduction rate: concentration of inhibitor changed, normalized to control without inhibitor = 1 (FIGS. 8 to 11)
Protocol: (§1) Mouse fibroblast L-929 cells were seeded on a 96-well plate and were cultured for 24 h in CO2 incubator. A culture medium was removed by aspiration, and 100 μL of nocodazole (inhibitor) free-culture medium, 1 μM nocodazole-containing culture medium, or 100 μM nocodazole-containing culture medium was added to each well. The cells were cultured for 30 min in CO2 incubator. Next, the culture medium was removed by aspiration, and 6.0 μg/6.0 μL of pAcGFP1-N1 plasmid (selected molecule) solution was added dropwise to each well. The 96-well plate was set in plasma irradiation equipment and irradiated with plasma. Then, 100 μL of culture medium was immediately added, and the plate was returned to CO2 incubator and the cells were cultured for 24 h. The cells after the culturing were observed under a microscope.
A selected molecule was introduced in the same manner as in Example 1, except the point that in the inhibitor treatment step using 1 μM nocodazole, the treatment time was changed from 1 min to 120 min. […] The dashed line denotes the level in the case without adding nocodazole (control, left panel). The gene transfer efficiency (%) was calculated, using a Cytell (Cytell Cell Imaging System, manufactured by GE Healthcare, Inc.), as (the number of GFP-expressing cells/viable cell number).
A selected molecule was introduced in the same manner as in Example 1, except the point that the cells were treated with 5 μM or 15 μM chloroquine diphosphate and the plasma irradiation time was changed.
A selected molecule was introduced in the same manner as in Example 1, except the point that the concentration of nocodazole was changed, to determine cell viability and gene transfer efficiency. The plasma irradiation conditions were at a frequency of 20 kHz, a voltage of 15 kVpp, and an inter-electrode distance of 1 mm and for an irradiation time of 1 msec.
Cell viability and gene transfer efficiency were determined in the same manner as in Example 4, except the point that chloroquine was used as the inhibitor.
Cell viability and gene transfer efficiency were determined in the same manner as in Example 4, except the point that LY-294002 was used as the inhibitor.
Cell viability and gene transfer efficiency were determined in the same manner as in Example 4, except the point that wortmannin was used as the inhibitor.

MDCK cells = experiment: GFP plasmid introduction by plasma with nocodazole treatment after plasma irradiation, microscope observation; type: cell-based, canine; settings: 1.0 μM or 0.1 μM nocodazole for 30 min after plasma irradiation; vs without nocodazole treatment (FIG. 13)
Protocol: (§2) By using cells (canine renal epithelial cell MDCK cells or human osteosarcoma cell MG63 cells) different from those in Example 1, gene transfer efficiency was examined when nocodazole treatment was performed after plasma irradiation. Specifically, the following protocol was used to conduct an experiment.
(§3) Canine renal epithelial cell MDCK cells or human osteosarcoma cell MG63 cells were each seeded on a 96-well plate and cultured for 24 h in CO2 incubator. The culture medium was removed by aspiration, and 6.0 μg/6.0 μL of pAcGFP1-N1 plasmid (selected molecule) solution was added dropwise to each well. The 96-well plate was set in plasma irradiation equipment and was irradiated with plasma. Then, 100 μL of nocodazole (inhibitor)-free culture medium, 1 μM nocodazole-containing culture medium, or 0.1 μM nocodazole-containing culture medium was added to each well. The cells were cultured for 30 min in CO2 incubator. After that, the culture medium was removed by aspiration and 100 μL of culture medium was added immediately. The plate was returned to CO2 incubator, and the cells were cultured for 24 h. The cells after the culturing were observed under a microscope. The plasma irradiation conditions were the same as in Example 1.

MG63 cells [2] = experiment: GFP plasmid introduction by plasma with nocodazole treatment before irradiation, microscope observation; type: cell-based, human; settings: 1.0 μM or 0.1 μM nocodazole before plasma irradiation; vs without nocodazole treatment (FIG. 12)
Protocol: as §1
An experiment was conducted in the same manner as in Experiment 1, except that cells (human osteosarcoma cells, MG63 cells) different from those in Example 1 were used. The concentration of nocodazole was 1 μM or 0.1 μM.

MG63 cells [3] = experiment: GFP plasmid introduction by plasma with nocodazole treatment after plasma irradiation, microscope observation; type: cell-based, human; settings: 1.0 μM or 0.1 μM nocodazole for 30 min after plasma irradiation; vs without nocodazole treatment (FIG. 14)
Protocol: as §2, §3

L-929 cells [4] = experiment: GFP-expressing plasmid introduction by plasma irradiation after inhibitor treatment, microscope observation; type: cell-based, mouse; settings: 1 μM or 100 μM nocodazole, 30 min before plasma irradiation; compared to the case without nocodazole treatment (FIGS. 2 to 4)
Protocol: as §1
In Example 1, the plasma irradiation conditions were at a frequency of 20 kHz, a voltage of 15 kVpp, and an inter-electrode distance of 1 mm and for an irradiation time of 1 msec or 5 msec.

L-929 cells [5] = experiment: PCR quantification of remaining plasmid gene at 24 h after introduction; type: cell-based, mouse; settings: 1 μM nocodazole, from Cq values (FIG. 15)
Protocol: A selected molecule was introduced into mouse fibroblast L-929 cells in the same procedure as in Example 1. The resulting cells were cultured for 24 h. […] The cultured cells were collected from eight wells, and a High Pure PCR Template Preparation Kit (manufactured by Roche, Inc.) was used to recover and purify DNA. Next, 50 ng of the purified DNA was added to a PCR reaction kit SYBR Green I (Fast Start Essential DNA Green Master, manufactured by Roche, Inc.). Each resulting mixture was subjected to 40 cycles of amplification using a PCR machine (LightCycler 96 system, manufactured by Roche, Inc.). […] Each Cq value refers to a value determined by calculating a cycle number after amplification of gene sequence of interest has started and before a quantitative increase (linear increase) is initiated. The cycle number indicated by each arrow in FIG. 15(B) refers to the Cq value. When many copies of the gene sequence of interest are contained, there is a rapid increase in amplification and the Cq value is small. In addition, the inverse number of Cq value is proportional to the initial amount of the gene sequence of interest.

O=c1cc(N2CCOCC2)oc2c(-c3ccccc3)cccc12 [LY-294002, 2-(4-morpholinyl)-8-phenyl-4H-1-benzopyran-4-one]
gene introduction rate (L-929 cells [1]; plasma irradiation 1 msec): significantly increased

CCN(CC)CCCC(C)Nc1ccnc2cc(Cl)ccc12 (stereo not drawn) [chloroquine]
gene transfer efficiency (L-929 cells [1]; chloroquine 5 μM or 15 μM, plasma irradiation time 1 msec to 10 msec, vs cells without chloroquine treatment (std) (FIG. 7(B))): increased
gene introduction rate (L-929 cells [1]; plasma irradiation 1 msec): significantly increased

COC(=O)Nc1nc2ccc(C(=O)c3cccs3)cc2[nH]1 [nocodazole]
number of GFP-expressing cells (MDCK cells): increase
gene transfer efficiency (L-929 cells [1]; 1 μM nocodazole, treatment time 1 min to 120 min, plasma irradiation time 1 msec, vs without nocodazole (FIG. 6(B))): marked increase
gene transfer efficiency (L-929 cells [1]; 1 μM nocodazole, treatment time 1 min to 120 min, plasma irradiation time 5 msec, vs cells without nocodazole (FIG. 5(B))): markedly increased
gene introduction rate (L-929 cells [1]; plasma irradiation 1 msec): significantly increased
number of GFP-expressing cells (MG63 cells [2]): increased
number of GFP-expressing cells (MG63 cells [3]): increase
number of GFP-expressing cells (L-929 cells [4]): increased
amount of exogenous gene DNA remaining in cells relative to cells without nocodazole treatment (L-929 cells [5]): about 1.44 times

COC[C@H]1OC(=O)c2coc3c2[C@@]1(C)C1=C(C3=O)[C@@H]2CCC(=O)[C@@]2(C)C[C@H]1OC(C)=O [wortmannin]
inhibitor concentration at which the gene transfer efficiency was further markedly increased (L-929 cells [1]; plasma irradiation 1 msec, 30 min inhibitor treatment (FIGS. 8 to 11)): ≤ 0.01 µM
